From US20240197729A1, “ALK-5 Inhibitors and Uses Thereof” (Sumitomo Pharma Oncology, Inc., priority 2021, published 2024)
“Also recorded” adds a separate entry of the source.

Tests used:
[1] = test system: p-SMAD2 (Ser465/Ser467); experiment: Longitudinal PK/PD analysis of p-SMAD2 in A549 xenograft mouse model; format: in vivo, mice; settings: for percent p-SMAD2 levels compared to vehicle group: 50 mg/kg per oral gavage, normalized to GAPDH; for time of peak p-SMAD2 suppression post dosing / drug tumor and plasma exposure in vivo: single dose 50 mg/kg per oral gavage; for drug tumor and plasma exposure in vivo: A549 xenograft mice
Protocol: Accordingly, a longitudinal, twenty-two-hour, one-dose study was performed using Compound 04 and the commercially available ALK5 inhibitor vactosertib in an A549 xenograft mouse model. In this study, p-SMAD2 (Ser465/Ser467) and a housekeeping gene (GAPDH) were measured at ten timepoints from zero (established using vehicle-treated animals) up to twenty-two hours post dose for a single drug dose of fifty milligrams per kilogram per subject (three subjects per dosing group).
For this study, xenografts were prepared and implanted in mice as follows. At five weeks of age, female athymic nude mice (purchased from Charles River) were injected with approximately 2.1 million A549 cells (ATCC, CCL-185). Cells were harvested and resuspended in plain RPMI media (no phenol red added) and Matrigel (Corning 356237) at a one to one ratio, and two hundred-microliters of the cell suspension were injected into the right hind flank of each mouse. Tumors were measured every three days by caliper, and as tumors reached an average of seventy-eighty millimeters cubed, mice were randomized in groups of three subjects. Each of the test compounds (vactosertib, Compound 04) was resuspended in 1-methyl-2-pyrrolidinone (Sigma, 494496) (10%) plus 20% Solutol (Sigma 42966) in water (90%). The drug suspensions were sonicated for fifteen minutes to generate a fine particle suspension before being given to the test subjects. Subjects were dosed (per oral gavage) with the suspension. A vehicle control group with three mice was used to establish the baseline and timepoint zero of phospho-SMAD-2 in the tumor xenograft. The test compounds were administered to the respective subject groups at fifty milligrams per kilogram.
Samples were obtained post administration of test compounds at 30 minutes, one hour, two hours, four hours, six hours, eight hours, twelve hours, sixteen hours and twenty-two hours. Tumors were harvested, snap frozen and stored at negative eighty degrees Celsius until further processing. Plasma was collected from all animals by collecting whole blood via cardiac puncture, followed by centrifugation in tubes containing EDTA (BD, microtainer tubes, 365974). A group of three mice receiving vehicle only served as the zero timepoint for both drug groups. The phospho SMAD-2 levels were determined using the Bio-Plex Pro™ Phospho-Smad2 (Ser465/Ser467) Set (BioRad 171V50019M). The phospho SMAD-2 levels were normalized to GAPDH (MILLIPLEX MAP GAPDH Total Magnetic Bead MAPmate™, Millipore 46-667MAG) levels from each sample. All analytes were analyzed in a multiplex fashion with the Bio-Plex Pro Cell Signaling Reagent Kit (BioRad 171304006M). Frozen tumor samples (fifteen to thirty milligrams) were lysed in 100 μl lysis buffer, processed in a bead mill tube, and centrifuged. The resulting lysate was used at 1:50 dilution for the assay according to the manufacturer's instructions. Bead suspension was analyzed using the Luminex system (MAGPIX).
The study described in Example 8 was expanded to include Compound 01. Accordingly, using the same procedure for preparing test subjects and the ability of compounds tested to suppress TGF-beta signaling over time (as described in Example 8), a longitudinal, twenty-two-hour, one-dose study was performed using Compound 01, and the data were plotted alongside data obtained in Example 8 from Compound 04 and commercially available ALK5 inhibitor vactosertib, which were replotted in accordance with Example 10. For this expansion of the longitudinal study, p-SMAD2 (Ser465/Ser467) and housekeeping gene GAPDH were measured at ten timepoints from zero up to twenty-two hours post a single drug dose of fifty milligrams per kilogram per animal (three animals per group). A vehicle only treatment group of three mice was used to establish the baseline levels of p-SMAD2 in A549 xenograft tumor samples.
As in Example 8, xenografts were prepared and implanted in mice as follows. […]

[2] = test system: phospho-SMAD-2 (Ser465/Ser467); experiment: A549 xenograft assay, p-SMAD2; format: in vivo, mice; settings: for Average % p-SMAD2 (Ser 465/467) of vehicle: tumors 4 h after dosing; for efficacious dose derived from p-SMAD2 inhibition in the A549 xenograft mouse model: per oral gavage
Text: To test compounds for inhibition of in vivo on-target activity (ALK5/TGF-bR1 inhibition) as well as potential Janus Kinase (JAK) signaling off-target activity, the A549 murine xenograft model was utilized. An ALK5 inhibitor (e.g., vactosertib) is expected to reduce the amount of the TGF-beta signaling molecule phospho-SMAD-2 (pSMAD2) in the A549 xenograft cells. The TGF-beta-mediated phosphorylation of SMAD2 in A549 cells takes place at amino acid residue four hundred and sixty-five and four hundred and sixty-seven (both are serine residues). A JAK inhibitor (e.g., ruxolitinib) is expected to reduce the phosphorylation of signal transducer and activator of transcription (STAT) proteins such as STAT3 at amino acid residue 705 (tyrosine).
At eight weeks of age, female athymic nude mice (purchased from Charles River) were injected with approximately 3.5 million A549 cells (ATCC, CCL-185). Specifically, cells were harvested and resuspended in plain RPMI media (no phenol red added) and Matrigel (Corning 356237) at a one to one ratio, and two hundred-microliters were injected into the right hind flank of each mouse. Tumors were measured every three days by caliper and as tumors reached an average of seventy-eighty millimeters cubed, mice were randomized in groups of three. All compounds were resuspended in 1-methyl-2-pyrrolidinone (Sigma 494496) (10%) plus 20% Solutol (Sigma 42966) in water (90%). Vactosertib and ruxolitinib were included as controls as ALK5 signaling inhibitor and JAK signaling inhibitor, respectively. Both controls were given at seventy-five milligrams per kilogram to three mice. The drug suspensions were sonicated for fifteen minutes to generate a fine particle suspension before being given to the mice. Mice were dosed (per oral gavage) with drug at one hundred, seventy-five, fifty, or ten milligrams per kilogram, with three mice per group. A vehicle control group with three mice was used to establish the baseline level of phospho-SMAD-2 in the tumor xenograft.
Four hours after drug administration, tumors were harvested, snap frozen and stored at negative eighty degrees Celsius until further processing. The phospho-SMAD-2 levels were determined using the Bio-Plex Pro™ Phospho-Smad2 (Ser465/Ser467) Set (BioRad 171V50019M). The phospho STAT3 levels were determined using the bead/antibody set from the MILLIPLEXMAP STAT Cell Signaling Magnetic Bead 5-Plex Kit (Millipore 48-610MAG). Both phospho SMAD-2 levels and phospho STAT3 levels were normalized to ß-Tubulin (MILLIPLEX MAP ß-Tubulin Total Magnetic Bead MAPmate™, Millipore 46-713MAG) or GAPDH (MILLIPLEX MAP GAPDH Total Magnetic Bead MAPmate™, Millipore 46-667MAG) levels from each sample. All analytes were analyzed in a multiplex fashion with the Bio-Plex Pro Cell Signaling Reagent Kit (BioRad 171304006M). Briefly, frozen tumor (fifteen to thirty milligrams) was lysed in 100 μl lysis buffer, processed in bead mill tube, and centrifuged. The resulting lysate was used at 1:50 dilution for the assay according to the manufacturer's instructions. Bead suspension was analyzed using the Luminex system (MAGPIX).

SMILES | percent p-SMAD2 levels compared to vehicle group ([1]; 0.5 h post dosing) [%] | percent p-SMAD2 levels compared to vehicle group ([1]; 1 h post dosing) [%] | percent p-SMAD2 levels compared to vehicle group ([1]; 4 h post dosing) [%] | percent p-SMAD2 levels compared to vehicle group ([1]; 6 h post dosing) [%] | percent p-SMAD2 levels compared to vehicle group ([1]; 8 h post dosing) [%] | percent p-SMAD2 levels compared to vehicle group ([1]; 12 h post dosing) [%] | percent p-SMAD2 levels compared to vehicle group ([1]; 16 h post dosing) [%] | percent p-SMAD2 levels compared to vehicle group ([1]; 22 h post dosing) [%] | time of peak p-SMAD2 suppression post dosing [1] | drug tumor and plasma exposure in vivo ([1]; 50 mg/kg) | drug tumor and plasma exposure in vivo ([1]; listed as compound 04, 50 mg/kg) | Average % p-SMAD2 (Ser 465/467) of vehicle ([2]; 10 mg/kg per oral gavage) [%] | Average % p-SMAD2 (Ser 465/467) of vehicle ([2]; 50 mg/kg per oral gavage) [%] | Average % p-SMAD2 (Ser 465/467) of vehicle ([2]; 75 mg/kg per oral gavage) [%] | Average % p-SMAD2 (Ser 465/467) of vehicle ([2]; 100 mg/kg per oral gavage) [%] | efficacious dose derived from p-SMAD2 inhibition in the A549 xenograft mouse model [2] | inhibition of the biomarker p-SMAD2 ([2]; seventy-five milligrams per kilogram) [%] | percent p-SMAD2 levels compared to vehicle group ([1]; 2 h post dosing) [%] | drug tumor and plasma exposure in vivo [1]
Clc1cccc2c(Nc3ccnc(Nc4cccc(N5CCOCC5)c4)c3)cnnc12 [Compound 04, N4-(8-chlorocinnolin-4-yl)-N2-[3-(morpholin-4-yl)phenyl]pyridine-2,4-diamine] | 55 | 24 | 14 | 22 | 57 | 95.0 | 81.9 | 91.4 | two | longer drug tumor and plasma exposure in vivo than vactosertib | longer drug tumor and plasma exposure in vivo | 69 | 13 | 6 | 7 | fifty | 94 |  | 
Cc1nn(CC(F)(F)F)cc1Nc1cc(Nc2cnnc3c(C)cccc23)ccn1 [Compound 01, N2-[3-methyl-1-(2,2,2-trifluoroethyl)-1H-pyrazol-4-yl]-N4-(8-methylcinnolin-4-yl)pyridine-2,4-diamine] | 57 | 37 | 30 | 59 | 76 | 89.2 | 82.1 | 86.5 | 2 h |  |  | 97 | 33 | 13 | 8 | seventy-five |  | 24 | longer drug tumor and plasma exposure in vivo
Cc1cccc2c(Nc3ccnc(Nc4ccc(N5CCOCC5)cc4)c3)cnnc12 [Compound 05, N4-(8-methylcinnolin-4-yl)-N2-[4-(morpholin-4-yl)phenyl]pyridine-2,4-diamine] |  |  |  |  |  |  |  |  |  |  |  | 136 | 74 | 11 | 13 |  |  |  | 
Cc1cccc(-c2[nH]c(CNc3ccccc3F)nc2-c2ccc3ncnn3c2)n1 [Vactosertib, vactosertib, reference compound] | 53 | 14 | 32 | 67 | 65 | 89.1 | 74.6 | 101.1 |  | quickly cleared from the system; also recorded: quickly cleared from the mice |  |  |  | 32 |  |  |  | 21 | 
